Experimental findings from patent publication US8859608B2, “Spiro amino compounds suitable for the treatment of inter alia sleep disorders and drug addiction” (Rottapharm Biotech S.R.L., priority 2009, dated 2014) are described below.

One data set addresses T1, human OX1 receptor (Homo sapiens, UniProt O43613).
T1 sequence (O43613 1-425): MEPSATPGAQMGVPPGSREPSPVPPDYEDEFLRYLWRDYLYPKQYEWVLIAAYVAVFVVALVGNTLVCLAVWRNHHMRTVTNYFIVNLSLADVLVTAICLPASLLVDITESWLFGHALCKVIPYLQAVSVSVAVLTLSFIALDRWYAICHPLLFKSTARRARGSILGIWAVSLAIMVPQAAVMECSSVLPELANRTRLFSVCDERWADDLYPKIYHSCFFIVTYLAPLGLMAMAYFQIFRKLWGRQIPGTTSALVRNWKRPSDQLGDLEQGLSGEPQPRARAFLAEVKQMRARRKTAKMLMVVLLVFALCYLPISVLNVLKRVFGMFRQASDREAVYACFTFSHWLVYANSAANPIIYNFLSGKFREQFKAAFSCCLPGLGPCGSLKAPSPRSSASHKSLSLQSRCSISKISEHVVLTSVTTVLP
Description: FLIPR measurement of intracellular calcium, antagonistic activity at OX1.

A short description of data set [1]: Brain penetration in rats 1 hour after intravenous treatment. In kind it is in vivo. The following applies: male, Han Wistar, rat, one hour after intravenous administration, 1 mg/kg. On the procedure:
(§1) The pharmacokinetics of compound 4 were studied in male Han Wistar rats. The rats were treated intravenously and orally (n=3 for each dose route) with a compound 2 solution at the dose of 1 mg/kg, formulated in Lactic acid 150 mM pH 4.5 in water, 5% DMSO, 10% TWEEN 80. The rats were fitted with a jugular cannula for serial sampling, a full profile was acquired for each rat. Another group of rats (n=3) was treated intravenously and sacrificed after 1 hour harvesting arterial blood and brain to assess brain penetration. Plasma and brain extracts were quantitatively analyzed using a specific and sensitive LC-MS/MS bioanalytical method. Inter-individual variations between the three rats in each group were limited (CV for pharmacokinetic parameters was below 30%).

The nature of data set [2]: Pharmacokinetics in male Han Wistar rats, intravenous and oral. Particulars: 1 mg/kg. In kind it is in vivo. Here is the method: as §1
The target of a further data set is T2, human OX2 receptor (Homo sapiens, UniProt O43614).
T2 sequence (O43614 1-444): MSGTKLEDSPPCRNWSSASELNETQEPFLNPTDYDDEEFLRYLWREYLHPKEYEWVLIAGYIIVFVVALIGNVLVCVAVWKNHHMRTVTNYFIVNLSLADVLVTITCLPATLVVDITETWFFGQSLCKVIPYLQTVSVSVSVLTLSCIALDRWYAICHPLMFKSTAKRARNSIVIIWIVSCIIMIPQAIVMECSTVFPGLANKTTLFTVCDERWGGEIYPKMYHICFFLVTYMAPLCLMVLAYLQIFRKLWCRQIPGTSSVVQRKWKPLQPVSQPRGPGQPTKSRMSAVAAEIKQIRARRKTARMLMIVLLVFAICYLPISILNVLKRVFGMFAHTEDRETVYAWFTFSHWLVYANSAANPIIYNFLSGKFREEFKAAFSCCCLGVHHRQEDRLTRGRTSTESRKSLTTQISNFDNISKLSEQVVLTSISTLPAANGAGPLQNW
Description: FLIPR measurement of intracellular calcium, antagonistic activity at OX2. For orientation: A change in cytosolic calcium serves as a functional read-out for many receptors and channels.

The mark [3] stands for this setting: male, Han Wistar, plasma, rat, intravenous.

Like-named read-outs stand apart in the source and are kept apart here.

Description for human OX1 receptor: (§2) Thus the plate was loaded with the calcium dye (Fluo-4NW/probenecid in HBSS, Hepes 20 mM, pH 7,4; Invitrogen) at 37° C. for 60 min. Afterward the temperature was equilibrated at 22° C. for 15 min and the [Ca2+]i measured directly on the plate by using a fluorescent plate reader (CeliLux Perkin Elmer).
(§3) After 5 min CHO cells were activated with orexin-A, 3 nM while HEK-293 cells were activated with orexin-B, 10 nM.
(§4) The antagonistic activity has been expressed as pKb (co-logarithm of the apparent dissociation constant calculated by using the modified Cheng Prusoff equation).
Description for human OX2 receptor: as §2, §3, §4

Turning to `Cc1cccc(NCC2CC3(CCN2C(=O)c2nc(C)sc2-c2ccccc2)CC3)n1` (single isomer, unassigned) [Compound 2, (2-methyl-5-phenylthiazol-4-yl)(5-((6-methylpyridin-2-ylamino)methyl)-6-azaspiro[2.5]octan-6-yl)methanone], at human OX1 receptor (OX1 versus OX2, from the pKb table), the “selectivity against the OX1 receptor” value is “highly selective”. Moreover, the Kb (commonly the affinity of an antagonist, worked out from how it opposes an agonist) at human OX1 receptor (pKb OX1, CHO cells with human recombinant OX1, activated with orexin-A 3 nM, 1 nM-1 μM range, modified Cheng Prusoff) is 6.31 nM; on human OX2 receptor, over 10000 nM. Besides, the concentration at 1 h in data set [1] (arterial plasma, read-out: average arterial plasmatic level) was 126 ng/mL; in data set [1] (brain, read-out: average total brain level), 83 ng/g. The Kp at 1 h in data set [1] (brain/plasma, read-out: Brain/plasma concentrations ratio) was determined as 0.66. Also, the “clearance as share of rat liver blood flow” value in data set [2] (intravenous) was 40%. Besides, the AUC (usually the area under the concentration-time curve, a measure of exposure) is about 740 ng·h/mL in data set [2] (setting [3]) and about 360 ng·h/mL in data set [2] (male, Han Wistar, plasma, rat, oral). In data set [2] (setting [3]), this molecule had a clearance of about 5.33 mL/min. Also, the Vd in data set [2] (male, Han Wistar, plasma, rat, intravenous, read-out: average volume of distribution (Vss)) was 0.33 L. Besides, the bioavailability (usually the share of a dose that reaches the circulation, judged against a reference dose that is usually intravenous) in data set [2] (male, Han Wistar, plasma, rat, oral solution, read-out: absolute oral bioavailability) was 50%. In addition, in data set [2] (rat), the “oral AUC as share of AUC after intravenous administration” value is “about 50%”. Further, in data set [2] (rat, oral), the “time of maximum concentration” value is at most 30 min.
